# Results as given in US20250186600A1, “EXCIPIENT COMPOUNDS FOR PROTEIN FORMULATIONS” (Comera Life Sciences, Inc., priority 2020, published 2025).
# Structures can show the parent of a compound that is named as a salt.
# Experiments:
# [1] = system: proteins described in Table 50; assay: DLS diffusion interaction parameter kD (Example 49); format: physicochemical; settings: mixed 1:1 with protein solution, 20 mM His HCl pH 6, 25° C.
# Experimental: The resulting solution was titrated to pH 6 by dropwise addition of 1 M hydrochloric acid. After pH adjustment, the buffer was diluted to a final volume of 1 L in a volumetric flask with Type 1 ultrapure water. All excipients used in this Example, listed in Table 50 below, were of the highest purity, and were obtained from Sigma Aldrich (St. Louis, MO) or Cayman Chemical (Ann Arbor, MI).
# A series of six test protein solutions were prepared using the proteins described in Table 50, ranging in protein concentration from about 4 mg/mL to about 20 mg/mL, all in 20 mM His HCl buffer at pH 6. […] A second centrifuge step was completed to remove air bubbles. The diffusion interaction parameter (kD) of these protein-excipient formulations was measured by dynamic light scattering (DLS) in dilute solution as a way of probing the impact of excipients on protein-protein interactions (PPI). […] A more negative kD indicated a stronger net attractive PPI and a more positive kD indicated a stronger net repulsive PPI.
# [2] = Caffeine solubility with co-solutes during refrigerated storage (Example 61); format: physicochemical; set-up: key: (PPT)—precipitate observed; (—)—clear solution observed; settings: 50 mM co-solute, 25 mM histidine pH 6, stored 2 to 5° C.
# Experimental: The resulting microplates were then sealed with microplate tape and stored in a refrigerator with the temperature maintained in the range of 2 to 5° C. Over the course of storage, the microplates were visually observed for evidence of precipitate in the well.
# [3] = excipient stock concentration 100 mM
# [4] = excipient stock concentration 200 mM
compound,measurement,setting,value
Cl.NCC(O)c1ccc(O)c(O)c1 (racemic) [DL-Norepinephrine HCl],Omalizumab kD,[1]; [3],-19.8 mL/g
same,Ustekinumab kD,[1]; [3],1.5 mL/g
Cn1cnc(CC(=O)O)c1 [1-methyl-4-imidazoleacetic acid],Omalizumab kD,[1]; [4],-21.8 mL/g
same,Ustekinumab kD,[1]; [4],47.4 mL/g
O=S(=O)([O-])CCC[n+]1ccccc1 [3-(1-Pyridinio)-1-propanesulfonate],Omalizumab kD,[1]; [4],-30.2 mL/g
same,Ustekinumab kD,[1]; [4],26.7 mL/g
Nc1ccc(C(=O)O)cc1 [4-Aminobenzoic acid],Omalizumab kD,[1]; [4],-17.4 mL/g
same,Ustekinumab kD,[1]; [4],1.5 mL/g
COc1cc(C=CC(=O)O)ccc1O [4-hydroxy-3-methoxycinnamic acid],Omalizumab kD,[1]; [4],-26.6 mL/g
same,Ustekinumab kD,[1]; [4],21.0 mL/g
C1COCCOCCOCCOCCO1 [15-crown-5 ether],Omalizumab kD,[1]; [4],-25.0 mL/g
same,Ustekinumab kD,[1]; [4],26.7 mL/g
CC(=O)CC(=O)OCc1ccccc1 [Benzyl acetonacetate],Omalizumab kD,[1]; [3],-27.0 mL/g
same,Ustekinumab kD,[1]; [3],26.6 mL/g
OCc1ccccc1 [Benzyl alcohol],Day 1 (visual observation for precipitate),[2]; caffeine 7.5 mg/mL,—
same,Day 7 (visual observation for precipitate),[2]; caffeine 7.5 mg/mL,—
same,Day 18 (visual observation for precipitate),[2]; caffeine 7.5 mg/mL,—
same,Day 27 (visual observation for precipitate),[2]; caffeine 7.5 mg/mL,—
same,Day 56 (visual observation for precipitate),[2]; caffeine 7.5 mg/mL,—
same,Day 1 (visual observation for precipitate),[2]; caffeine 10 mg/mL,—
same,Day 7 (visual observation for precipitate),[2]; caffeine 10 mg/mL,—
same,Day 18 (visual observation for precipitate),[2]; caffeine 10 mg/mL,—
same,Day 27 (visual observation for precipitate),[2]; caffeine 10 mg/mL,—
same,Day 56 (visual observation for precipitate),[2]; caffeine 10 mg/mL,—
same,Day 1 (visual observation for precipitate),[2]; caffeine 12.5 mg/mL,—
same,Day 7 (visual observation for precipitate),[2]; caffeine 12.5 mg/mL,—
same,Day 18 (visual observation for precipitate),[2]; caffeine 12.5 mg/mL,—
same,Day 27 (visual observation for precipitate),[2]; caffeine 12.5 mg/mL,—
same,Day 56 (visual observation for precipitate),[2]; caffeine 12.5 mg/mL,—
same,Day 1 (visual observation for precipitate),[2]; caffeine 15 mg/mL,—
same,Day 7 (visual observation for precipitate),[2]; caffeine 15 mg/mL,—
same,Day 18 (visual observation for precipitate),[2]; caffeine 15 mg/mL,—
same,Day 27 (visual observation for precipitate),[2]; caffeine 15 mg/mL,PPT
same,Day 56 (visual observation for precipitate),[2]; caffeine 15 mg/mL,PPT
same,Day 1 (visual observation for precipitate),[2]; caffeine 20 mg/mL,—
same,Day 7 (visual observation for precipitate),[2]; caffeine 20 mg/mL,PPT
same,Day 18 (visual observation for precipitate),[2]; caffeine 20 mg/mL,PPT
same,Day 27 (visual observation for precipitate),[2]; caffeine 20 mg/mL,PPT
same,Day 56 (visual observation for precipitate),[2]; caffeine 20 mg/mL,PPT
CCN(CC)CCCC(C)Nc1ccnc2cc(Cl)ccc12 (centres unmarked) [Chloroquine Phosphate],Omalizumab kD,[1]; [3],-26.4 mL/g
same,Ustekinumab kD,[1]; [3],15.2 mL/g
N[C@@H]1CON=C1O [Cycloserine],Omalizumab kD,[1]; [4],-14.7 mL/g
same,Ustekinumab kD,[1]; [4],-13.6 mL/g
"Nn1nnc2ccccc21 [Excipient 1-aminobenzotriazole, 1-aminobenzotriazole]",Omalizumab kD,[1]; [4],-24.1 mL/g
same,Ustekinumab kD,[1]; [4],24.0 mL/g
"Cc1ncc[nH]1 [Excipient 2-Methylimidazole, 2-Methylimidazole]",Omalizumab kD,[1]; [4],-24.5 mL/g
same,Ustekinumab kD,[1]; [4],-0.5 mL/g
N=C(N)NC(=O)Cc1c(Cl)cccc1Cl [Guanfacine HCl],Ustekinumab kD,[1]; [3],36.1 mL/g
COc1cc(CC(=O)O)ccc1O [Homovanillic acid],Omalizumab kD,[1]; [4],-21.2 mL/g
same,Ustekinumab kD,[1]; [4],5.5 mL/g
O=C(O)C1=CCNCC1 [Isoguvacine HCl],Omalizumab kD,[1]; [4],-7.9 mL/g
same,Ustekinumab kD,[1]; [4],1.0 mL/g
O=c1cc(CO)occ1O [Kojic Acid],Omalizumab kD,[1]; [4],-29.1 mL/g
same,Ustekinumab kD,[1]; [4],33.2 mL/g
CN1CCCC1=O [N-Methyl-2-pyrrolidone],Day 1 (visual observation for precipitate),[2]; caffeine 7.5 mg/mL,—
same,Day 7 (visual observation for precipitate),[2]; caffeine 7.5 mg/mL,—
same,Day 18 (visual observation for precipitate),[2]; caffeine 7.5 mg/mL,—
same,Day 27 (visual observation for precipitate),[2]; caffeine 7.5 mg/mL,—
same,Day 56 (visual observation for precipitate),[2]; caffeine 7.5 mg/mL,—
same,Day 1 (visual observation for precipitate),[2]; caffeine 10 mg/mL,—
same,Day 7 (visual observation for precipitate),[2]; caffeine 10 mg/mL,—
same,Day 18 (visual observation for precipitate),[2]; caffeine 10 mg/mL,—
same,Day 27 (visual observation for precipitate),[2]; caffeine 10 mg/mL,—
same,Day 56 (visual observation for precipitate),[2]; caffeine 10 mg/mL,—
same,Day 1 (visual observation for precipitate),[2]; caffeine 12.5 mg/mL,—
same,Day 7 (visual observation for precipitate),[2]; caffeine 12.5 mg/mL,—
same,Day 18 (visual observation for precipitate),[2]; caffeine 12.5 mg/mL,—
same,Day 27 (visual observation for precipitate),[2]; caffeine 12.5 mg/mL,—
same,Day 56 (visual observation for precipitate),[2]; caffeine 12.5 mg/mL,PPT
same,Day 1 (visual observation for precipitate),[2]; caffeine 15 mg/mL,—
same,Day 7 (visual observation for precipitate),[2]; caffeine 15 mg/mL,—
same,Day 18 (visual observation for precipitate),[2]; caffeine 15 mg/mL,PPT
same,Day 27 (visual observation for precipitate),[2]; caffeine 15 mg/mL,PPT
same,Day 56 (visual observation for precipitate),[2]; caffeine 15 mg/mL,PPT
same,Day 1 (visual observation for precipitate),[2]; caffeine 20 mg/mL,PPT
same,Day 7 (visual observation for precipitate),[2]; caffeine 20 mg/mL,PPT
same,Day 18 (visual observation for precipitate),[2]; caffeine 20 mg/mL,PPT
same,Day 27 (visual observation for precipitate),[2]; caffeine 20 mg/mL,PPT
same,Day 56 (visual observation for precipitate),[2]; caffeine 20 mg/mL,PPT
O=C([O-])c1ccccc1.[Na+] [Sodium benzoate],Day 1 (visual observation for precipitate),[2]; caffeine 7.5 mg/mL,—
same,Day 7 (visual observation for precipitate),[2]; caffeine 7.5 mg/mL,—
same,Day 18 (visual observation for precipitate),[2]; caffeine 7.5 mg/mL,—
same,Day 27 (visual observation for precipitate),[2]; caffeine 7.5 mg/mL,—
same,Day 56 (visual observation for precipitate),[2]; caffeine 7.5 mg/mL,—
same,Day 1 (visual observation for precipitate),[2]; caffeine 10 mg/mL,—
same,Day 7 (visual observation for precipitate),[2]; caffeine 10 mg/mL,—
same,Day 18 (visual observation for precipitate),[2]; caffeine 10 mg/mL,—
same,Day 27 (visual observation for precipitate),[2]; caffeine 10 mg/mL,—
same,Day 56 (visual observation for precipitate),[2]; caffeine 10 mg/mL,—
same,Day 1 (visual observation for precipitate),[2]; caffeine 12.5 mg/mL,—
same,Day 7 (visual observation for precipitate),[2]; caffeine 12.5 mg/mL,—
same,Day 18 (visual observation for precipitate),[2]; caffeine 12.5 mg/mL,—
same,Day 27 (visual observation for precipitate),[2]; caffeine 12.5 mg/mL,—
same,Day 56 (visual observation for precipitate),[2]; caffeine 12.5 mg/mL,—
same,Day 1 (visual observation for precipitate),[2]; caffeine 15 mg/mL,—
same,Day 7 (visual observation for precipitate),[2]; caffeine 15 mg/mL,—
same,Day 18 (visual observation for precipitate),[2]; caffeine 15 mg/mL,—
same,Day 27 (visual observation for precipitate),[2]; caffeine 15 mg/mL,—
same,Day 56 (visual observation for precipitate),[2]; caffeine 15 mg/mL,PPT
same,Day 1 (visual observation for precipitate),[2]; caffeine 20 mg/mL,—
same,Day 7 (visual observation for precipitate),[2]; caffeine 20 mg/mL,—
same,Day 18 (visual observation for precipitate),[2]; caffeine 20 mg/mL,PPT
same,Day 27 (visual observation for precipitate),[2]; caffeine 20 mg/mL,PPT
same,Day 56 (visual observation for precipitate),[2]; caffeine 20 mg/mL,PPT
